One series has as its system Factor VII. Description: In vivo Factor VII gene silencing in mouse hepatocytes. More on the design: species or system mice. The conditions noted are these: for Relative FVII Activity: tail vein, serum two days post-injection.
Series [1] relates to HeLa cells stably modified to express both firefly and Renilla luciferase. Description: In vitro transfection of HeLa cells with lipid nanoparticles (firefly luciferase silencing). The series is classed as cell-based. The conditions noted are these: 40 nM anti-firefly luciferase siRNA formulated with lipidoid; firefly normalized to Renilla; crude lipidoids.
The subject of a further series is CD45. The series is described as follows: In vivo CD45 silencing in leukocyte populations. Conditions: peritoneal cavity and spleen, three days post intravenous delivery.
The nature of the next series: Serum cytokine profiling. Conditions: four hours after 3 mg/kg IV bolus (total siRNA). The series is classed as in vivo, mice. On the procedure: (§1) Post-sacrifice, cardiac sticks were immediately performed on animals that had been dosed with either 304O13 or C12-200 lipid nanoparticles. Blood was centrifuged in serum separator tubes at 5,000 rpm for 10 minutes, and serum was analyzed for various hematological parameters. Serum chemistry was evaluated on a Beckman Olympus AU400 Serum Chemistry Analyzer. Cytokines were analyzed using Bio-Plex Pro Mouse Cytokine 23-Plex Assay kits (Luminex Corporation, Austin, Tex.) on the Bio-Plex 200 system, according to manufacturer instructions.
Cytokine analysis was done by injecting either 304O13 or C12-200 nanoparticles at an siRNA dose of 3 mg/kg. Four hours post-injection, blood was harvested via cardiac stick and serum was isolated. Cytokine levels were quantified using an ELISA assay.
A preliminary safety assessment was conducted on the lead LNP, 304O13, and it was compared to another previously-discovered LNP formulation, C12-200 (Love, K. T. et al. Lipid-like materials for low-dose, in vivo gene silencing. PNAS 107, 1864-1869 (2010)). […] Serum cytokine levels for both materials were assessed in mice four hours after a 3 mg/kg IV bolus injection (total siRNA). […] Clinical chemistry parameters were evaluated for both materials 72 hours after a single dose of 3 mg/kg and after four once weekly doses of 3 mg/kg each.

Another series is described as follows: Serum clinical chemistry. The series is classed as in vivo, mice. Conditions: 72 hours after single 3 mg/kg dose or four once weekly 3 mg/kg doses. On the procedure:
The mice had been injected with either a single 3 mg/kg dose of total siRNA or four 3 mg/kg doses (1× per week for four weeks). Blood was drawn for analysis 72 hours post-final injection. There were no statistically significant changes in any of the clinical chemistry parameters for any of the treated groups compared to controls (as evaluated by a student t-test). Error bars represent standard deviation (n=3-5).
as §1
A preliminary safety assessment was conducted on the lead LNP, 304O13, and it was compared to another previously-discovered LNP formulation, C12-200 (Love, K. T. et al. Lipid-like materials for low-dose, in vivo gene silencing. PNAS 107, 1864-1869 (2010)). […] Serum cytokine levels for both materials were assessed in mice four hours after a 3 mg/kg IV bolus injection (total siRNA). […]

A short description of series [2]: Histology (H&E) of liver, spleen, kidneys and pancreas. The series is classed as in vivo, mice. Conditions: for dose at which liver necrosis was observed: single-dose studies (0-10 mg/kg). On the procedure:
Organs were harvested from animals that had received various doses of either 304O13 or C12-200 lipid nanoparticles (C12-200 is a control non-degradable lipidoid shown below). Organs were fixed overnight in 4% paraformaldehyde and transferred to 70% ethanol prior to paraffin embedding, sectioning, and H & E staining.
Histological analysis was performed through H&E staining on sections from the liver, spleen, kidneys and pancreas. […] Pancreatic inflammation and islet cell enlargement were detected at C12-200 doses ≧2 mg/kg. […] Multi-dose studies were also conducted in which mice received four injections of 0.3, 1, 2, 3, or 5 mg/kg, once per week for four weeks. […] There was no sign of liver toxicity in any of the 304O13 groups up to 5 mg/kg.

Series [3] in a line: Biodistribution of Cy5.5-labeled siRNA (IVIS, Odyssey, confocal). The conditions noted are these: liver harvested one hour post-injection.
The nature of series [4]: Nanoparticle characterization. In kind it is physicochemical.
The next series is described as follows: Lipidoid hydrolysis. In kind it is physicochemical. The conditions noted are these: 6 N HCl reflux 24 h; KOH in EtOH/H2O reflux 41 h. The protocol:
To a 25 ml round bottom flask was added 304O13 (0.250 g, 0.263 mmol, 1 equiv). For acidic hydrolysis, 10 ml of a solution of 6 N HCl was added to the flask to afford a cloudy heterogeneous solution. The reaction was heated to reflux to afford a clear, homogeneous solution and was stirred at reflux for 24 hours. For basic hydrolysis, 10 ml of a solution of KOH in EtOH/H2O (solution=5.61 g KOH in 47.5 ml EtOH w/2.5 ml distilled H2O) was added to the flask to afford a clear colorless solution. The reaction was heated to reflux and stirred for 41 h. […] Reactions were concentrated to dryness under reduced pressure and diluted with CDCl3. The basic reaction was filtered to remove excess KOH. Proton NMR analysis was performed in CDCl3. Proton nuclear magnetic resonance spectra were recorded with a Bruker Avance 400 spectrometer, are depicted in parts per million on the δ scale, and are referenced from the residual protium in the NMR solvent (CDCl3: δ 7.26 (CHCl3).
The acrylate-based lipidoids provided herein also contain hydrolysable ester moieties, functional groups which are commonly incorporated into delivery vehicles to promote physiological degradation (Staubli, A., Ron, E. & Langer, R. J. Am. Chem. Soc. 112, 4419-4424 (1990); van Dijkhuizen-Radersma, et al. Biomaterials 23, 4719-4729 (2002); Geng, Y. & Discher, D. E. J. Am. Chem. Soc. 127, 12780-12781 (2005)).

Setting [5] is: multi-dose, four injections once per week for four weeks.

Usually pKa stands for the pH at which an ionisable group is half protonated. A lower pKa goes with a group that gives up its proton readily.

With `CCCCCCCCCCCCCCOC(=O)CCN(CCC(=O)OCCCCCCCCCCCCCC)[C@@H](CO)[C@H](C)O` [Lipidoid 196O14], the “Relative FVII Activity” value in the series with Factor VII (5 mg/kg siRNA) is given as 0.82. The “Relative Luciferase Activity” value in [1] is 0.38.
With `CCCCCCCCCCCCOC(=O)CCN(CCC(=O)OCCCCCCCCCCCC)CC1(C)CC(N(CCC(=O)OCCCCCCCCCCCC)CCC(=O)OCCCCCCCCCCCC)CC(C)(C)C1` (stereo not shown) [Lipidoid 315O12], in the series with Factor VII (5 mg/kg siRNA), the “Relative FVII Activity” value was 0.99. The “CD45 silencing in immune cells” value in the series on CD45 was “modest CD45 silencing”. Further, in series [1], the “Relative Luciferase Activity” value is given as 0.30.
For `CCCCCCCCCCCCCOC(=O)CCN(CCC(=O)OCCCCCCCCCCCCC)CCN(CCC(=O)OCCCCCCCCCCCCC)CCN(CC)CC` [Lipidoid 123O13], the “Relative FVII Activity” value in the series with Factor VII (0.1 mg/kg siRNA) turned out to be 0.86; in the series with Factor VII (0.5 mg/kg siRNA), 0.50; in the series with Factor VII (2 mg/kg siRNA) it was 0.00; in the series on Factor VII (5 mg/kg siRNA), 0.00. Besides, the “Relative Luciferase Activity” value in series [1] is given as 0.22.
With `CCCCCCCCCCCCCOC(=O)CCN(CCC(=O)OCCCCCCCCCCCCC)CC1CCCN(C)C1` (stereo not shown) [Lipidoid 235O13], the “Relative FVII Activity” value with Factor VII (5 mg/kg siRNA) was 0.39. Besides, the “Relative Luciferase Activity” value in [1] is given as 0.42.
As for `CCCCCCCCCCC(O)CN(CCN1CCN(CCN(CC(O)CCCCCCCCCC)CC(O)CCCCCCCCCC)CC1)CCN(CC(O)CCCCCCCCCC)CC(O)CCCCCCCCCC` (stereo not shown) [Lipidoid C12-200, reference compound], the “serum IL-6, IP-10, KC and MCP-1 levels vs PBS control and 304O13 groups” value in the series “Serum cytokine profiling” is “elevated”. The “albumin, ALT, AST, ALP, total bilirubin, GGT” value in “Serum clinical chemistry” is “no toxicologically significant increases”. The “doses at which liver necrosis and inflammation were observed” value in series [2] (setting [5]) is given as at least 1 mg/kg. Further, the “doses at which pancreatic inflammation and islet cell enlargement were detected” value in [2] (single-dose studies) is at least 2 mg/kg. In addition, the “dose at which liver necrosis was observed” value in series [2] was determined as 7.5 mg/kg.
In the case of `CCCCCCCCCCCCOC(=O)CCN(CCC(=O)OCCCCCCCCCCCC)C[C@@H]1CCCN1CCC(=O)OCCCCCCCCCCCC` [Lipidoid 154O12], the “Relative FVII Activity” value with Factor VII (5 mg/kg siRNA) worked out at 0.99. Moreover, the “Relative Luciferase Activity” value in series [1] was found to be 0.33.
For `CCCCCCCCCCCCCOC(=O)CCN(CCC(=O)OCCCCCCCCCCCCC)CCN(C)CCCN(C)CCN(CCC(=O)OCCCCCCCCCCCCC)CCC(=O)OCCCCCCCCCCCCC` [Lipidoid 503O13], in the series with Factor VII (LNP encapsulating control siRNA), the “FVII knockdown with control (non-targeting) siRNA” value is reported as “did not result in FVII knockdown”. In [1], the “Relative Luciferase Activity” value is recorded as 0.07.
For `CCCCCCCCCCCCCOC(=O)CCN(C)CCN(CCN(C)CCC(=O)OCCCCCCCCCCCCC)CCN(C)CCC(=O)OCCCCCCCCCCCCC` [Lipidoid 304O13], the “Relative FVII Activity” value with Factor VII (0.1 mg/kg siRNA) turned out to be 0.54; in the series with Factor VII (0.5 mg/kg siRNA) it was 0.23; in the series with Factor VII (2 mg/kg siRNA), 0.02; in the series with Factor VII (5 mg/kg siRNA), 0.01. For the same molecule, the “time for Factor VII levels to return to baseline” value with Factor VII (optimized 304O13, single injection at 0.1 mg/kg) is on record as at most 18 days. Besides, the “CD45 silencing in immune cells” value with CD45 is “most robust CD45 silencing”. For the same molecule, the “siRNA distribution within liver (confocal microscopy)” value in [3] is on record as “siRNA accumulation throughout nearly all hepatocellular tissue”. Also, the “Relative Luciferase Activity” value in series [1] was 0.08. Also, the “siRNA Entrapment” value in series [4] (lipid nanoparticle, RiboGreen RNA assay) is given as 84.2%. For the same molecule, the Diameter in series [4] (lipid nanoparticle, average effective diameter) is on record as 86.0 nm. Further, in [4] (lipid nanoparticle, neutral pH), the “Zeta Potential” value is on record as 13.7 mV. In series [4] (nanoparticle surface, TNS assay), this molecule gave a pKa of 6.8. In “Serum clinical chemistry”, the “albumin, ALT, AST, ALP, total bilirubin, GGT” value is reported as “no toxicologically significant increases”. In series [2] (setting [5]), the “doses with no sign of liver toxicity” value was “up to 5 mg/kg”. In [2] (single-dose studies), the “dose at which a small amount of apoptosis in splenic red pulp was observed” value came out at 10 mg/kg. Moreover, the “dose at which liver necrosis was observed” value in series [2] came out at 10 mg/kg. Also, the “degradation under hydrolytic conditions (1H NMR, TLC)” value in “Lipidoid hydrolysis” is on record as “degraded to the anticipated alkyl-alcohol product”.
On to `CCCCCCCCCCCCCOC(=O)CCN(C)CCCN(CC)CCCN(C)CCC(=O)OCCCCCCCCCCCCC` [Lipidoid 218O13], for which the “Relative FVII Activity” value with Factor VII (5 mg/kg siRNA) came to 0.73. Besides, the “Relative Luciferase Activity” value in series [1] is 0.41.
On the same counts, the results for `CCCCCCCCCCCCCCOC(=O)CCN(CCC(=O)OCCCCCCCCCCCCCC)CCC1CCN(CCC(=O)OCCCCCCCCCCCCCC)CC1` [Lipidoid 205O14] are 0.83 and 0.43.
As for `CCCCCCCCCCCCCOC(=O)CCN(CCC(=O)OCCCCCCCCCCCCC)CC1CCCN1C` (stereo not shown) [Lipidoid 232O13], the “Relative Luciferase Activity” value in [1] is 0.39.

Values taken from US9439968B2, “Amine-containing lipidoids and uses thereof” (Massachusetts Institute of Technology, priority 2012, dated 2016).
